Results published in patent publication US20250332176A1, “TREATMENT FOR FIBROSIS AND INHIBITION OF FIBROSIS” (GALMED RESEARCH AND DEVELOPMENT LTD, priority 2022, published 2025).
“Also recorded” adds a separate entry of the source.

Experiments:
[1] = test system: LX-2, a human hepatic stellate cell line; assay: Mechanistic study in hepatic stellate cells (qPCR, Western, RNAseq, GSEA); format: cell-based; conditions: Aramchol 10 μM
Experimental: Serum-starved LX2 cells were treated with Aramchol™ (10 μM) for 24 or 48 hours. Fibrogenic gene expression and SCD-1 protein expression were measured by qPCR and Western, respectively. RNAseq was performed at 24 and 48 h in duplicate. Differential gene expression was assessed with DSeq2, while gene set enrichment analysis (GSEA) and gene ontology (GO) analyses assessed functionality of gene expression changes. Primary hepatocytes from C57BL/6 mice were harvested by perfusion and treated with Aramchol™ ([…]) for 48 hours in culture. PPAR γ mRNA expression was measured by qPCR.

[2] = test system: LX-2 human hepatic stellate cells; assay: Inhibition of collagen synthesis in stellate cells (COL1A1, PPARγ expression, collagen production); format: cell-based
Experimental: LX2 cells (150.000 cells per well) were plated in DMEM media containing antibiotics, glutamine and bovine fetal serum. After 24 hours incubation, media was changed to 0% serum and incubated for an additional period of 16 hours. Then, Aramchol™ (10 mM) was added and 24 hours later RNA was extracted with Trizol.

[3] = Phase 2 ARAMCHOL 003 repeat dose plasma exposure in patients; format: in vivo, human; conditions: for AUC/Dose / Relative bioavailability (AUC/Dose normalized to 30 mg HV data) / AUC at 84 day: patients; for AUC/Dose / Relative bioavailability (AUC/Dose normalized to 30 mg HV data): D84; for AUC at 84 day: human, plasma, oral
Experimental: Table 1 summarizes the reported plasma exposure from three studies-single dose Phase I in healthy volunteers (30-900 mg, AUC=AUCinf); Phase II ARAMCHOL™ 003 repeat dose study (AUC on D84 from 100 & 300 mg QD), Phase IIb Cmin on D84 (400 and 600 mg QD).
Exposure in patients is also sub-proportional from 100 to 300 mg. […] This may be due to the use of a tablet formulation in the patient study versus the powder/suspension in healthy volunteers or may simply reflect a high degree of inter-subject variability (typically exposure CV is >50% within a study group).

[4] = Modelling and simulation of 300 mg BID and 600 mg QD doses in patients (Phoenix 64, single compartment); design: species or system human; conditions: correction for sub-proportional PK
Experimental: Given the sub-proportional exposure generally seen, splitting the same total daily dose into two BID doses is likely to increase plasma AUC. The aim of this analysis was to model this behavior.
The 300 mg data on day 1 and day 84 in patients (Phase 2 ARAMCHOL™ 003) has been modelled in Phoenix 64@ assuming single compartment pharmacokinetics (parameterized by Cl and V) and first order absorption at a rate Ka with a delay, Tlag. The fitted model parameters all have a CV<25% and the predicted concentration data reasonably capture the observed data as shown in FIGS. 13A-13C.
To predict exposure at 600 mg, a correction for sub-proportional PK (lower bioavailability at higher dose) has been made assuming the same non-linearity at observed in healthy volunteers.

[5] = test system: human NAFLD; assay: 3-month phase 2a human NAFLD study; format: in vivo
[6] = test system: pts with pre-diabetes or diabetes and biopsy-proven NASH; assay: Global phase 2b randomized placebo-controlled ARREST trial, one-year results; format: in vivo, human
Experimental: Overweight/obese pts with pre-diabetes or diabetes and biopsy-proven NASH (with NAS≥4; F<4) were included. Liver biopsy and liver fat measurement by MR spectroscopy (LF-MRS) were performed at baseline and week 52. Both read centrally. The primary endpoint was the absolute change from baseline in LF-MRS (600 mg vs. placebo, PLB; mixed model repeated measures). Key secondary endpoints included: NASH resolution without fibrosis worsening, ≥1 stage fibrosis reduction without NASH worsening and ALT reduction. 247 pts from 11 countries (US, Europe, Latin America) were randomized 2:2:1 to Aramchol™ 400 mg QD (N=101), 600 mg QD (N=98) or PLB (N=48). At baseline: 65% females, mean age 54.4 yrs, BMI 32.7 kg/m2, HbA1c 6.6%±1.0% (mean±SD), LF-MRS 28.5%±11.7% (mean±SD); 60% fibrosis stage 2-3 and NAS 5.12±1.00 (mean±SD). 89% of pts completed the study. The results of the study are summarized in FIGS. 16A-16B to FIGS.-20A-20B.

[7] = test system: 0.1MCD-fed mice; assay: 0.1% methionine- and choline-deficient (0.1MCD) diet mouse model of NASH; format: in vivo
Excerpt: The study described below investigates the mechanism of action of Aramchol™ and its potential effect on fibrosis using the 0.1% methionine- and choline-deficient (0.1MCD) diet mouse model of NASH.
C57BI/6 were fed the Methionine and Choline Deficient (MCD) and control diet and were sacrificed after 4 weeks. The MCD diet induces aminotransferase elevation and changes in hepatic histological features, characterized by steatosis, local inflammation, hepatocyte necrosis and fibrosis. These changes occur rapidly and are morphologically similar to those observed in human NASH. In this study the MCD diet contained 0.1% methionine to minimize and stabilize weight loss. At the end of the second week, after verification of established NASH, 0.1MCD-fed mice were treated orally by gavage with Aramchol™ (5 mg/Kg/day) or vehicle (n=10, each condition). Control diet-fed mice were also treated with vehicle for same duration (n=10). At the end of the experiment, blood and liver samples were obtained. A diagram of the experimental design is shown below: […]

[8] = 5 mg/Kg/day orally by gavage from end of second week to week 4
[9] = 5 mg/Kg/day orally by gavage, liver

CCCCCCCCCCCCCCCCCCCC(=O)N[C@H]1CC[C@@]2(C)[C@@H](C1)C[C@@H](O)[C@@H]1[C@@H]2C[C@H](O)[C@]2(C)[C@@H]([C@H](C)CCC(=O)O)CC[C@@H]12 [Aramchol™, 3β-arachidylamido-7α, 12α-dihydroxy-5β-cholan-24-oic acid]
cholesterol biosynthesis (Gene Set Enrichment Analysis) ([1]; 24 or 48 hours): downregulates | collagen formation (Gene Set Enrichment Analysis) ([1]; 24 or 48 hours): downregulates | PPARγ mRNA (RT-PCR) ([1]; 24 or 48 hours, serum-starved): upregulates | SCD-1 mRNA (RT-PCR) ([1]; 24 or 48 hours, serum-starved): downregulates | fibrogenic genes (RT-PCR) ([1]; 24 or 48 hours, serum-starved): downregulates | SCD-1 protein (Western Blot, densitometry) ([1]; 24 or 48 hrs): downregulates | PPARγ mRNA (RNASeq) ([1]; 48 hrs): upregulation | cholesterol efflux regulatory protein ABCA1 (RNASeq) ([1]; 48 hrs): upregulated | fibrogenic genes and SCD-1 mRNA (RNASeq) ([1]; 48 hrs): downregulation; also recorded: downregulates | COL1A1 expression ([2]; Aramchol 10 mM, 24 hours, RNA): significantly reduced | PPARγ expression ([2]; Aramchol 10 mM, 24 hours, RNA): up-regulation | collagen production ([2]; relative to a DMSO control): significantly down regulates | AUC/Dose ([3]; 100 mg QD repeat dose): 197 ng/mL · h/(mg/kg) | Relative bioavailability (AUC/Dose normalized to 30 mg HV data) ([3]; 100 mg QD repeat dose): 0.50 | steady-state AUC in patients lower than AUCinf from a single dose in healthy volunteers ([3]; 300 mg): approximately 2 fold | AUC/Dose ([3]; 300 mg QD repeat dose): 110 ng/mL · h/(mg/kg) | Relative bioavailability (AUC/Dose normalized to 30 mg HV data) ([3]; 300 mg QD repeat dose): 0.28 | AUC at 84 day ([3]; 100 mg QD repeat dose, AUC on D84): 19700 ng·h/mL | AUC at 84 day ([3]; 300 mg QD repeat dose, AUC on D84 (steady-state)): 33000 ng·h/mL | exposure CV within a study group ([3]; typically, inter-subject variability): > 50% | relative bioavailability at 600 mg compared to 300 mg [4]: approximately 0.75 fold | hepatic fat [5]: reduced | pts progressed to cirrhosis ([6]; 400 mg QD, week 52): 7.5% | pts with ≥5% absolute reduction in liver fat ([6]; 400 mg QD, week 52): 37% | liver fat by MR spectroscopy (LF-MRS), absolute change from baseline vs PLB ([6]; 400 mg QD, week 52, p=0.045): significantly reduced | effect on ballooning (improvement ≥1 point; ballooning 0 at end of study) ([6]; 600 mg): statistically significant effect | pts progressed to cirrhosis ([6]; 600 mg QD, week 52): 1.3% | liver fat by MR spectroscopy (LF-MRS), absolute change from baseline vs PLB ([6]; 600 mg QD, week 52, p<0.066): significantly reduced | pts with NASH resolution without fibrosis worsening ([6]; 600 mg QD, week 52, vs 5.0% PLB): 16.7% | pts with ≥1 stage fibrosis reduction without NASH worsening ([6]; 600 mg QD, week 52, vs 17.5% PLB (p=0.21)): 29.5% | pts with ≥5% absolute reduction in liver fat ([6]; 600 mg QD, week 52, vs 24% on PLB (p<0.028)): 47% | OR for NASH resolution without fibrosis worsening vs PLB ([6]; 600 mg QD, 95% CI: 0.99-22.66, p=0.051): 4.74 | Discontinuation due to adverse events (AE) ([6]; 1-year treatment): < 5% | serious AE, pts ([6]; 1-year treatment, without a difference between arms): 10% | ALT vs PLB ([6]; both doses (400 mg and 600 mg QD), p<0.001, dose response): significantly reduced | HbA1c vs PLB ([6]; both doses (400 mg and 600 mg QD), p<0.007, dose response): significantly reduced | AST vs PLB ([6]; both doses (400 mg and 600 mg QD), p=0.002, dose response): significantly reduced | safety and tolerability ([6]; one year): excellent safety and tolerability | hepatic content of diglycerides (DG) and TG ([7]; 5 mg/Kg/day orally by gavage): reduction | GSH/GSSG ratio [7, 8]: elevates; also recorded: normalization | collagen in the liver (liver extract) [7, 8]: significantly down regulates | fibrosis in the liver (sirius red) [7, 8]: significantly down regulates/normalizes | glutathione in liver [7, 8]: significantly up regulates | infiltration and activation status of macrophages in the liver (F4/80, CD64) [7, 8]: significantly down regulates/normalizes | steatosis in the liver (Sudan III) [7, 8]: significantly down regulates | FA(16:1)/FA(16:0) ratio [7, 9]: marked decrease | SCD1 activity [7, 9]: reduced | SCD1 expression [7, 9]: marked decrease | content of total oxFA including oxLA [7, 9]: marked reduction | total content of monounsaturated FA (MUFA) [7, 9]: marked decrease
